Consider eight compounds from patent US20050032124A1, “Identification of genotype-selective agents for treating Huntington's disease” (priority 2003, published 2005).

Values after ≈ are worked out from the molar mass of the structure shown. Read-outs that look alike come from different tables or passages of the source. A value given as a limit tells only on which side of the number the result lay.

Test in all cases: Calcein AM viability assay, dilution-series retest
Holding throughout (type): cell-based

In one assay the test system is BJ-TERT cells. The note with it: Homo sapiens, 48 h, read-out: IC50, BJ-TERT. The text has this: (§1) Described here is work carried out to identify compounds with increased potency or activity in the presence of hTERT, LT, ST, E6, E7 or RAS^V12. Engineered cell lines with these genetic elements were used to screen […] compounds, including 20,000 compounds from a combinatorial library, 1,990 compounds from the National Cancer Institute diversity collection, and 1,540 biologically active known compounds that were selected and purchased by Applicant and formatted into a screenable collection. The primary screen tested (in quadruplicate) the effect of treating tumorigenic BJ-TERT/LT/ST/RAS^V12 engineered tumorigenic cells with each compound for 48 hours at a concentration of 4 μg/mL, corresponding to 10 μM for a compound with a molecular weight of 400, which is the approximate median molecular weight of the libraries. Cell viability was measured using the dye calcein acetoxymethyl ester (calcein AM) (Wang et al., 1993, Hum. Immunol. 3 7, 264-270), which is a non-fluorescent compound that freely diffuses into cells. In live cells, calcein AM is cleaved by intracellular esterases, forming the anionic fluorescent derivative calcein, which cannot diffuse out of live cells. […] The IC50 value (concentration required to inhibit 50% of the calcein AM signal) was calculated for each compound in each cell line (Table 1). […] Following is a more detailed analysis of these nine compounds.
(§2) Calcein acetoxylmethyl ester (AM) is a cell membrane-permeable, non-fluorescent compound that is cleaved by intracellular esterases to form the anionic, cell-impermeable, fluorescent compound calcein. Viable cells are stained by calcein because of the presence of intracellular esterases and because the intact plasma membrane prevents fluorescent calcein from leaking out of cells (Wang et al., 1993, supra). Cells were seeded in 384-well plates using a Zymark Sciclone ALH, treated with each compound in triplicate at 4 μg/mL in the primary screen for two days, washed with phosphate-buffered saline on a Packard Minitrak with a 384-well washer and incubated for four hours with 0.7 μg/mL calcein (Molecular Probes). Total fluorescence intensity in each well was recorded on a Packard Fusion platereader, and converted to a percent inhibition of signal by subtracting the instrument background and dividing by the average signal obtained when cells were not treated with any compound.
(§3) Replica daughter plates were prepared with a Zymark Sciclone ALH and integrated Twister II by diluting stock plates 50 fold in medium lacking serum and pen/strep to obtain a compound concentration in daughter plates of 80 μg/ml with 2% DMSO. Assay plates were prepared by seeding cells in black, clear bottom 384-well plates in columns 1-23 (6000 cells/well in 57 μl) using a syringe bulk dispenser. Columns 3-22 were treated with compounds from a daughter library plate by transferring 3 μl from the daughter library plate using 384-position fixed cannula array. The final compound concentrations in assay plates were thus 4 μg/ml. The assay plates were incubated for 48 hours at 37° C. in humidified incubator containing 5% CO2. Plate processing for the calcein AM viability assay was performed using an integrated Minitrak/Sidetrak robotic system from Packard Bioscience (Perkin Elmer). Assay plates were washed with phosphate buffered saline, and 20 μl of calcein AM (0.7 μg/ml) per well was added. Plates were incubated at room temperature for 4 hours. Fluorescence intensity was determined using a Fusion platereader with filters centered on an excitation of 485 nm and an emission of 535 nm.
(§4) Compounds to be retested were purchased from manufacturers. Stocks were prepared in DMSO at a concentration of 1 mg/ml in 384-well polypropylene plates with a 16-point, two-fold dilution dose curve of each compound in a column, in duplicates. Column 1-2 and 23-24 were left empty for controls. […]

A further assay has as its system BJ-TERT/LT/RAS^V12 cells. The settings on record: Homo sapiens, 48 h, read-out: IC50, BJ-TERT/LT/Ras^V12.
Source text: as §1, §2, §3, §4

Assay [1] concerns BJ-TERT/p53DD/CDK4^R24C/D1/ST/RAS^V12 cells. The note with it: Homo sapiens, 48 h, read-out: IC50, BJ-TERT/p53DD/CDK4^R24C/cyclineD1/ST/Ras^V12.
Source text: These engineered tumorigenic cells make use of dominantly acting viral oncoproteins such as LT, ST, E6 and E7. These viral proteins are possibly involved in cell transformation in specific forms of cancer, namely simian virus 40-induced malignant mesothelioma (Testa and Giordano, 2001, Semin Cancer Biol 11, 31-8) and human papillomavirus-induced cervical carcinoma (Bosch et al., 2002, J Clin Pathol 55, 244-65), and have been used to disrupt p53 and pRB function to transform cells in vitro and in vivo (Elenbaas et al., 2001, Genes Dev 15, 50-65; Jorcyk et al., 1998, Prostate 34, 10-22; Perez-Stable et al., 1997, Cancer Res 57, 900-6; Rich et al., 2001, Cancer Res 61, 3556-60; Sandmoller et al., 1995, Cell Growth Differ 6, 97-103). Applicants made use of these two different methods for inactivating cellular proteins, (they tested the effects of both LT and E6/E7-based inactivation of pRB and p53) in order to control for idiosyncratic effects that might be observed with a specific viral protein. The selectivity of these compounds was also confirmed in a cell line expressing dominant negative inhibitors of p53 and pRB that are not derived from viral elements. This cell line expresses (i) a truncated form of p53 (p53DD) that disrupts tetramerization of endogenous p53, (ii) a CDK4^R24C mutant resistant to inhibition by p16^INK4A and p15^INK4B (the major negative regulators of CDK4) and (iii) cyclin D1. The effects of the nine genotype-selective compounds were tested at a range of concentrations in these cells, which are referred to as BJ-TERT/ p53DD/CDK4^R24C/D1/ST/RAS^V12 cells (Table 1). […] However, the overall results of the analysis were unchanged by the use of non-viral proteins in this cell line (Table 1).
as §2, §3
Compounds to be retested were purchased from manufacturers. […]

Setting [2] is: BJ-TERT cells, 16-point two-fold dilution, two days.
Where [3] appears, read: BJ-TERT/LT/Ras^V12 cells, 16-point two-fold dilution, two days.
Where [4] appears, read: BJ-TERT/p53DD/CDK4^R24C/cyclineD1/ST/Ras^V12 cells, 16-point two-fold dilution, two days.

In the case of `COc1ccc(C[C@H]2C(=O)N[C@@H](C)C(=O)N(C)[C@@H]3C(=O)N(C)[C@@H](Cc4ccc(O)c(c4)Oc4ccc(cc4)[C@@H]3O)C(=O)N[C@H](C)C(=O)N[C@@H](C)C(=O)N2C)cc1` [Bouvardin], the IC50 in the assay with BJ-TERT cells was 0.078 µg/mL (≈ 0.101 µM); with BJ-TERT/LT/RAS^V12 cells it was 0.078 µg/mL (≈ 0.101 µM); in assay [1] it was 0.156 µg/mL (≈ 0.202 µM).
Regarding `CC[C@@]1(O)C(=O)OCc2c1cc1n(c2=O)Cc2cc3ccccc3nc2-1` [Camptothecin], the IC50 with BJ-TERT cells (setting [2]) was above 5 µg/mL; with BJ-TERT/LT/RAS^V12 cells (setting [3]) it was 1.25 µg/mL (≈ 3.59 µM); in assay [1] (setting [4]), 1.25 µg/mL (≈ 3.59 µM).
For `COc1cccc2c1C(=O)c1c(O)c3c(c(O)c1C2=O)C[C@@](O)(C(C)=O)C[C@@H]3O[C@H]1C[C@H](N)[C@H](O)[C@H](C)O1` [Daunorubicin], the results for the IC50 (in the assay with BJ-TERT cells; in the assay with BJ-TERT/LT/RAS^V12 cells; in assay [1]) were 1.25 µg/mL (≈ 2.37 µM), 1.25 µg/mL (≈ 2.37 µM) and 0.625 µg/mL (≈ 1.18 µM), respectively.
`COc1cccc2c1C(=O)c1c(O)c3c(c(O)c1C2=O)C[C@@](O)(C(=O)CO)C[C@@H]3O[C@H]1C[C@H](N)[C@H](O)[C@H](C)O1` [Doxorubicin]: the IC50 (with BJ-TERT cells (setting [2]); in the assay with BJ-TERT/LT/RAS^V12 cells (setting [3]); in assay [1] (setting [4])) was 1.25 µg/mL (≈ 2.3 µM) in each case.
Regarding `CS[C@H]1SC[C@H]2C(=O)N(C)[C@@H](C(C)C)C(=O)OC[C@@H](NC(=O)c3cnc4ccccc4n3)C(=O)N[C@@H](C)C(=O)N(C)[C@@H]1C(=O)N(C)[C@@H](C(C)C)C(=O)OC[C@@H](NC(=O)c1cnc3ccccc3n1)C(=O)N[C@@H](C)C(=O)N2C` [Echinomycin], the IC50 was 0.312 µg/mL (≈ 0.283 µM) in the assay on BJ-TERT cells, 0.0048 µg/mL (≈ 0.00436 µM) in the assay with BJ-TERT/LT/RAS^V12 cells and 0.078 µg/mL (≈ 0.0708 µM) in assay [1].
Consider `CCOc1ccccc1-n1c(C(C)N2CCN(C(=O)COc3ccc(Cl)cc3)CC2)nc2ccccc2c1=O` (stereo not drawn) [Erastin], for which the IC50 in the assay on BJ-TERT cells (setting [2]) is above 5 µg/mL; with BJ-TERT/LT/RAS^V12 cells (setting [3]), above 5 µg/mL; in assay [1] (setting [4]) it was 2.5 µg/mL (≈ 4.57 µM).
Regarding `O=C1c2c(O)ccc(O)c2C(=O)c2c(NCCNCCO)ccc(NCCNCCO)c21` [Mitoxantrone], the IC50 (in the assay with BJ-TERT cells (setting [2]); with BJ-TERT/LT/RAS^V12 cells (setting [3]); in assay [1] (setting [4])) was 1.25 µg/mL (≈ 2.81 µM) throughout.
Take `NC(=O)c1cn([C@@H]2O[C@H](CO)[C@@H](O)[C@H]2O)c2ncnc(N)c12` [Sangivamycin]: the IC50 with BJ-TERT cells is 0.039 µg/mL (≈ 0.126 µM); in the assay with BJ-TERT/LT/RAS^V12 cells it was 0.078 µg/mL (≈ 0.252 µM); in assay [1], 0.078 µg/mL (≈ 0.252 µM).
